Literature values in patent publication US20100239681A1, “Controlled Release Particulates Containing Water-Insoluble Drug” (Biokey, Inc., priority 2009, published 2010).

Conditions: at 25° C.

water solubility: < 30 µg/mL
SMILES: Oc1ccc(C=Cc2cc(O)cc(O)c2)cc1 [resveratrol]
